Each structure is given as a SMILES string.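 96-well plates; 48 h exposure; 5 concentrations. Endpoints by linear interpolation between flanking doses. Not reached: highest tested concentration assigned. Definition used: TGI = concentration required for complete inhibition of growth.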 Bounds are passed on as bounds.

Experiment in all cases: growth of human tumour cells (NCI), 48 h
In experiment [1] the test system is A549 NSCLC.
The test system of experiment [2] is BT-549 breast.
In experiment [3] the test system is CAKI-1 renal.
The subject of experiment [4] is DU-145 prostate.
The subject of experiment [5] is HS 578T breast.
In experiment [6] the test system is LOX IMVI melanoma.
Experiment [7] concerns MALME-3M melanoma.
Experiment [8] relates to NCI/ADR-RES ovarian.
For experiment [9], the system named is OVCAR-3 ovarian.
Experiment [10] concerns OVCAR-4 ovarian.
Experiment [11] deals with OVCAR-5 ovarian.
Experiment [12] concerns PC-3 prostate.
Experiment [13] has as its system RPMI-8226 leukemia.
Experiment [14] has as its system SF-268 CNS.
Experiment [15] deals with SF-539 CNS.
For experiment [16], the system named is SK-MEL-2 melanoma.
For experiment [17], the system named is SK-MEL-5 melanoma.
In experiment [18] the test system is SNB-19 CNS.
The subject of experiment [19] is SW-620 colon.
Experiment [20] deals with T-47D breast.

For the compound `NCCCc1ccc2oc3ccccc3c2c1`, the TGI in experiment [1] stood at 32.9 µM; in experiment [2] it was 37.2 µM; in experiment [3], 29.7 µM; in experiment [4] it was 30.6 µM; in experiment [5], 47.7 µM; in experiment [6], 39.9 µM. In addition, the TGI in experiment [7] is 34.3 µM; in experiment [8], 46.3 µM; in [9], 31.5 µM; in experiment [10], 38.3 µM; in [11], 26.2 µM; in [12], 33.1 µM. For the same compound, the TGI was found to be 70.7 µM in experiment [13]; 39.1 µM in experiment [14]; 36.9 µM in experiment [15]; 38.2 µM in [16]; 28.5 µM in experiment [17]; 31 µM in [18]. Also, the TGI is 50.3 µM in experiment [19] and 33.7 µM in experiment [20].

With `Cc1ccc(-n2cnc3c(N/N=C4\SCC(=O)N4c4ccccc4)ncnc32)cc1`, the TGI in [1] was 29.6 µM; in experiment [2], 14.1 µM; in experiment [3], 18.9 µM; in experiment [4] it was 17.5 µM; in [5] it was 26.6 µM; in [6] it was 10.3 µM. Moreover, the TGI in experiment [7] was determined as 16.3 µM; in [8], 53.8 µM; in [9] it was 11.5 µM; in [10] it was 21.2 µM; in [11], 25.4 µM; in experiment [12] it was 17.8 µM. Moreover, the TGI worked out at 19.7 µM in [14]; 3.71 µM in [15]; 8.42 µM in [16]; 16 µM in experiment [17]; 24.4 µM in [18]; 16.5 µM in [19]. This compound also showed a TGI in [20] of 18.7 µM.

As for `Nc1nnc(-c2ccco2)c(-c2ccco2)n1`, the TGI in [1], in [2], in [3], in [4], in experiment [5] and in experiment [7] was over 100 µM in each case. For the same compound, the TGI in [8], in experiment [9], in experiment [10], in experiment [11], in experiment [12] and in [13] was over 100 µM throughout. Also, the TGI in experiment [14], in experiment [15], in [16], in [17], in experiment [18] and in [19] was over 100 µM each time. This compound gave a TGI in [20] of over 100 µM.

In the case of `CC1CC[C@@]2(OC1)OC1C[C@H]3[C@@H]4CC[C@H]5CC(OC6OC(CO)C(OC7OC(CO)C(O)C(O)C7O)C(O)C6O)CCC5(C)[C@H]4CCC3(C)C1[C@@H]2C` (some centres not stated), the TGI came to 19.6 µM in experiment [1]; 11 µM in experiment [2]; 16.9 µM in experiment [3]; 18 µM in experiment [4]; 17.1 µM in experiment [5]; 12.3 µM in experiment [6]. Moreover, the TGI in experiment [7] was 15.7 µM; in [8], 19.9 µM; in experiment [9], 14.6 µM; in experiment [10] it was 17.1 µM; in [11], 17.2 µM; in experiment [12], 15.1 µM. Also, the TGI stood at 45.3 µM in experiment [13]; 18.1 µM in experiment [14]; 16.3 µM in experiment [15]; 15.3 µM in experiment [16]; 16.1 µM in [17]; 17.9 µM in [18]. The TGI was 17.8 µM in experiment [19] and 20.4 µM in [20].

Turning to `O=C1C(N=Nc2ccc(-c3nc4ccccc4o3)cc2)NC(=S)N1c1ccccc1` (configuration not stated), the TGI in experiment [1], in experiment [2], in experiment [3], in experiment [4], in experiment [5] and in [6] was over 100 µM in each case. The TGI in [7] is over 100 µM; in experiment [8], over 100 µM; in [9], 64.3 µM; in experiment [10] it was over 100 µM; in [11], over 100 µM; in [12] it was over 100 µM. Besides, the TGI in [14], in experiment [15], in experiment [16], in [17], in experiment [18] and in experiment [19] was over 100 µM in each case. The same compound returned a TGI in experiment [20] of over 100 µM.

For the compound `O=C1C=CC(=O)c2c(O)c(N[C@@H](Cc3ccccc3)C(=O)OCc3ccccc3)c(Cl)c(O)c21`, the TGI in [1] is over 10 µM; in experiment [2] it was over 10 µM; in experiment [3] it was over 10 µM; in experiment [4] it was over 10 µM; in experiment [5], over 10 µM; in experiment [6], 7.11 µM. The TGI in experiment [7] is over 10 µM; in experiment [8], 5.62 µM; in experiment [9], 7.15 µM; in [10] it was over 10 µM; in experiment [11] it was over 10 µM; in experiment [12], over 10 µM. The TGI in experiment [13] is over 10 µM; in [14] it was over 10 µM; in experiment [15], 8.86 µM; in experiment [16], over 10 µM; in experiment [17], 8.18 µM; in experiment [18], over 10 µM. The TGI in experiment [19] and in experiment [20] was over 10 µM in each case.

Turning to `CCOC(=O)C1(Cc2c[nH]c3ccccc23)C(O)CCCN1C(C)=O` (configuration not stated), the TGI in experiment [1], in [2], in experiment [3], in [4], in experiment [5] and in experiment [6] was over 100 µM throughout. Further, the TGI in experiment [7], in [8], in experiment [9], in experiment [10], in [11] and in [12] was over 100 µM each time. The TGI in [13], in experiment [14], in experiment [15], in experiment [16], in experiment [17] and in [18] was over 100 µM in each case. Also, the TGI in experiment [19] and in [20] was over 100 µM throughout.

Source of the values: PubChem BioAssay (NCI).
